The values that follow come from US4194009A, “Aryloxyphenylpropylamines for obtaining a psychotropic effect” (Eli Lilly and Company, priority 1976, dated 1980).

In series [1] the test system is anesthetized cats. The series can be described thus: electrocardiogram (QRS complex) in anesthetized cats. The settings on record: intravenous injection.
In series [2] the test system is mice. The series can be described thus: apomorphine hypothermia antagonism test. The series is classed as in vivo. Conditions: in words. The protocol:
(§1) The apomorphine hypothermia antagonism test is carried out as follows: mice are injected with a dose of apomorphine known to reduce body temperature approximately 4° C. The compound under test is injected 1/2 hour before the injection of the apomorphine and the temperatures measured 1/2 hour after injection. The degree of antagonism is expressed as a percent reduction (as compared with controls) of the temperature decrease produced by the injection of the apomorphine. The reserpine hypothermia reversal test is carried out as follows: groups of mice are injected with reserpine and 16.5 hours later are injected intraperitoneally with graded doses of the drug, a different dose level being given to each group of mice. Temperatures are measured at 1 hour after injection of the drug under test and again the effectiveness of the drug is expressed as a percentage decrease in the hypothermia induced by the injection of reserpine as compared with the control group. In the tables which follow, Table 4 gives the results in the apomorphine antagonism and reserpine reversal hypothermia tests for the secondary amines of this invention. In the table, the first column gives the substituent attached to the oxygen atom at the 3 position of the propylamine chain; columns 2 to 4 the percent antagonism against apomorphine hypothermia at dose levels of 0.3, 1 and 3 mg./kg. and columns 5-7 the percent reversal of reserpine hypothermia at the same dose levels.

The subject of series [3] is mice. The series can be described thus: reserpine hypothermia reversal test. The series is classed as in vivo. Conditions: in words. The protocol:
as §1

Series [4] concerns isolated muscle strips. As to the kind of experiment: antihistaminic effect in isolated muscle strips. The format is cell-based.
Series [5] concerns isolated muscle strips. As to the kind of experiment: anticholinergic effect in isolated muscle strips. The format is cell-based.
Series [6] relates to isolated muscle strips. The series can be described thus: antiserotonin effect in isolated muscle strips. The series is classed as cell-based.
For series [7], the system named is pigeons. As to the kind of experiment: operant behavior, fixed-ratio, fixed interval schedule in pigeons. The format is in vivo.

Take `COc1ccccc1OC(CCN)c1ccccc1` (stereo not shown) [3-(o-Methoxyphenoxy)-3-phenylpropylamine, 3-(o-methoxyphenoxy)-3-phenylpropylamine]: in series [1], the “widening of the QRS complex of the electrocardiogram” value is listed as “affects the electrocardiogram similarly, but at far higher doses”.

In the case of `CN(C)CCC=C1c2ccccc2CCc2ccccc21` [amitriptyline, reference compound], the “antagonism of apomorphine hypothermia” value in series [2] is recorded as “active”. Moreover, the “reversal of reserpine hypothermia” value in series [3] is “active”. Besides, the “widening of the QRS complex of the electrocardiogram” value in series [1] is recorded as “causes a widening of the QRS complex”.

On to `CNCCCN1c2ccccc2CCc2ccccc21` [desmethylimipramine], for which, in series [2], the “antagonism of apomorphine hypothermia” value is “active”. The “reversal of reserpine hypothermia” value in series [3] is recorded as “active”. Further, the “antihistaminic potency relative to N-methyl 3-(o-methoxyphenoxy)-3-phenylpropylamine” value in series [4] was 150 times. Moreover, in series [5], the “anticholinergic potency relative to N-methyl 3-(o-methoxyphenoxy)-3-phenylpropylamine” value came out at 150 times. The “antiserotonin potency relative to N-methyl 3-(o-methoxyphenoxy)-3-phenylpropylamine” value in series [6] is given as “three times more potent”.

Take `CNCCC(Oc1ccccc1OC)c1ccccc1` (stereo not shown) [o-anisyl, N-methyl 3-(o-methoxyphenoxy)-3-phenylpropylamine]: the “persistence of the effect on response rates” value in series [7] was “more than 24 hours”.
